From US20100158863A1, “TRIAZOLOANILINOPYRIMIDINE DERIVATIVES FOR USE AS ANTIVIRAL AGENTS” (ARROW THERAPEUTICS LIMITED, priority 2006, published 2010) come the findings set out here.

Each structure is given as a SMILES string. Where two headings read alike, the source gives them in different places.

What is called IC50 is the concentration that inhibits the measured activity by half.

One data set concerns HCV replicon 1b (Huh-9B). Kind of data set: HCV replicon activity, luciferase detection on the replicon plate. It counts as cell-based, HCV genotype 1b. The following applies: Huh-9B replicon cells, luciferase signal. The source says: 1b replicon (Huh.7) described in Science 285, 110-113. • Huh-9B: liver cell line with persistent bicistronic HCV genotype 1b coding sequence: [I3891ucubineo—3-3′_ET] includes firefly luciferase-ubiquitin-neomycin phosphotransferase fusion protein and EMCV-IRES driven non-structural HCV (NS3 to NS5B) coding sequence including cell culture adaptive mutations E1202G, […] and K1846T (Lohmann et al, 2001).
This assay is set up using all 96 wells of flat-bottomed 96-well plates. Plates are set up one day before addition of compounds. The assay then runs for 4 days with ELISA development taking place on the 5th day.
Exponentially growing Huh-9B monolayers are washed with sterile PBS to remove serum and treated with trypsin to detach cells from the flask.
(§1) Cells are suspended in growth media and counted using a haemocytometer. Duplicate 96 well plates are seeded with Huh-9B at a density of 10^4 cells/well in a total volume of 100 μl/well of growth medium without antibiotics as depicted below.
(§2) One of the plates is an opaque white 96-well plate used for IC50 determination based on the luciferase signal (referred as replicon plate), the other one is a clear 96-well plate used for a parallel determination of drug toxicity by methylene blue staining (referred as tox plate). Wells G12 and H12 of the tox plate are left without cells to use as buffer alone background reading.
Plates are then incubated at 37° C. in a 5% CO2 environment for 24 h to obtain a 90% confluent cell monolayer.
(§3) Doubling dilutions of each compound are generated in a separate 96 high volume capacity round bottom plate to twice their initial concentration in the assay using growth medium without antibiotics.
Five compounds (C1 to C5) are tested on each assay plate as illustrated below plus a control compound that is also included in each plate.
(§4) Compounds are tested across an 8 point doubling dilution series. The initial dilution of each compound to be tested is 25 μM and 12.5 μM for the control compound.
DMSO only wells (A1 and A2) at 1% provide the signal corresponding to maximal (100%) luciferase detection. […] The signal from the DMSO wells at 1% (maximal signal) constitutes the assay window.
(§5) For each compound dilution on the 2×96-well dilution plate 100 μl are transferred using a multichannel pipette onto the replicon and tox plates mirror wells which contain […] of medium to obtain the desired final concentration.
Media is tapped out from wells into Virkon and plates are washed once in warm PBS and tapped dry gently.
For each well 20 μl of lysis buffer is added by multichannel pipette. Lysates are stable at this point for several hours.
Luciferase assay buffer is placed it in the luminometer (Lmax, Molecular Devices).
The M injector is primed with 4×300 μl of luciferase assay buffer. The plate to be analyzed is placed in the luminometer and […] of luciferase assay buffer injected automatically into one well followed by 4 seconds integration read out.
After one second delay a second well is injected with 100 μl of luciferase assay buffer followed by 4 seconds integration read out and so forth until all 96 wells are analyzed.
Once the reading is finished the luminometer injection system is washed with deionised water.
The data is acquired using the SOFTmax for Lmax Pro software package.
(§6) SOFTmax data files are exported as Excel or text files. A standard four parameters non-linear regression analysis of the data obtained from each compound is then used to calculate the IC50.
(§7) In the above analysis all replicate wells are meaned. The % of control is then calculated for each concentration point as a percentage of the DMSO control wells.
(A replicon is a self-replicating genome or part of one, used to study replication in cells.)

The test system of a further data set is HCV replicon 1b. Description: ELISA, combined effect of HCV replication inhibitor with interferon αA. It counts as cell-based. The following applies: for IC50: Hepatitis C virus. The source says:
ELISA Protocol as in Example 38
The fractional inhibitory concentratin (FIC) can be used to identify a synergistic interaction.
Background: An ELISA detects its analyte on a solid surface through an enzyme-linked reagent.

The test system of a further data set is Huh-9B. Kind of data set: Toxicity determination on the tox plate by methylene blue staining. It counts as cell-based. The following applies: Huh-9B cells, parallel tox plate. As to the method: as §1, §2, §3, §4, §5
Media is tapped out from wells into Virkon and plates tapped dry gently. To each well 100 μl of 0.5% solution of methylene blue in 50% methanol is added to all wells including blanks (G12 and H12). Plates are left at RT for a minimum of 1 h. Plates are then rinsed gently by immersing in a plastic box with water, tapped dry gently and left open until they are fully dry. Dye is solubilized adding 100 μl of 1% lauroylsarcosine to each well and shaking for 1 h at 37° C. Plates are read on the SpectraMax spectrophotometer at 620 nm wavelength using the SOFTmax Pro software package.
as §6, §7

Turning to `COc1ccc(-c2ccc3ncnc(Nc4ccc(-n5cncn5)cc4)c3c2)cc1OC` [Example 10, [6-(3,4-Dimethoxy-phenyl)-quinazolin-4-yl]-(4-[1,2,4]triazol-1-yl-phenyl)-amine], the 50% inhibitory concentration (IC50) is less than 5 µM in the data set with HCV replicon 1b (Huh-9B) (Hepatitis C virus); 0.2 µM with HCV replicon 1b (compound alone, read-out: ELISA IC50 against HCV replicon 1b); not above 0.067 µM in the data set with HCV replicon 1b (read-out: IC50 of compound in combination). Further, the “fractional inhibitory concentration (FIC)” value with HCV replicon 1b (combination with interferon αA, FIC <0.5 = synergy) is 0.336. For the same molecule, the “Replicon TD50” value in the data set on Huh-9B is “* (* <25 μM)”.

For `COc1ncc(-c2ccc3ncnc(Nc4ccc(-n5cncn5)cc4)c3c2)cn1` [Example 16, [6-(2-Methoxy-pyrimidin-5-yl)-quinazolin-4-yl]-(4-[1,2,4]triazol-1-yl-phenyl)-amine], in the data set with HCV replicon 1b (Huh-9B) (Hepatitis C virus), the IC50 was less than 5 µM. Besides, the “Replicon TD50” value in the data set on Huh-9B is on record as “** (** >25 μM)”.

`Brc1ccc2ncnc(Nc3ccc(-n4cncn4)cc3)c2c1` [Example 21, (6-Bromo-quinazolin-4-yl)-(4-[1,2,4]triazol-1-yl-phenyl)-amine] came in with an IC50 in the data set on HCV replicon 1b (Huh-9B) (Hepatitis C virus) of less than 5 µM. Further, in the data set on Huh-9B, the “Replicon TD50” value is on record as “** (** >25 μM)”.

The molecule `CN(C)CCOc1ccc(-c2ccc3ncnc(Nc4ccc(-n5cncn5)cc4)c3c2)cc1` [Example 12, {6-[4-(2-Dimethylamino-ethoxy)-phenyl]-quinazolin-4-yl}-(4-[1,2,4]triazol-1-yl-phenyl)-amine] came in with a half-inhibitory concentration (IC50) in the data set on HCV replicon 1b (Huh-9B) (Hepatitis C virus) of less than 5 µM. Further, the “Replicon TD50” value with Huh-9B was “* (* <25 μM)”.

For `COc1ccc(-c2ccc3ncnc(Nc4ccc(-n5nc(C(=O)N(C)C)nc5C)cc4)c3c2)cc1OC` [Example 30, 1-{-4-[6-(3,4-Dimethoxy-phenyl)-quinazolin-4-ylamino]-phenyl}-5-methyl-1H-[1,2,4]triazole-3-carboxylic acid dimethylamide], the concentration for half-maximal inhibition (IC50) in the data set on HCV replicon 1b (Huh-9B) (Hepatitis C virus) was less than 5 µM. For the same molecule, the “Replicon TD50” value with Huh-9B is “* (* <25 μM)”.

In the case of `COCCOc1ccc(-c2ccc3ncnc(Nc4ccc(-n5nc(C(=O)N(C)C)nc5C)cc4)c3c2)cc1F` [Example 32, 1-(4-{6-[3-Fluoro-4-(2-methoxy-ethoxy)-phenyl]-quinazolin-4-ylamino}-phenyl)-5-methyl-1H-[1,2,4]triazole-3-carboxylic acid dimethylamide], the IC50 with HCV replicon 1b (Huh-9B) (Hepatitis C virus) is less than 5 µM. Further, the “Replicon TD50” value in the data set on Huh-9B is recorded as “* (* <25 μM)”.

Turning to `COc1cc2c(Nc3ccc(-n4cncn4)cc3)ncnc2cc1OCCCN1CCOCC1` [Example 4, [6-Methoxy-7-(3-morpholin-4-yl-propoxy)-quinazolin-4-yl]-(4-[1,2,4]triazol-1-yl-phenyl)-amine], the IC50 with HCV replicon 1b (Huh-9B) (Hepatitis C virus) lay within 5 to 20 µM. Besides, the “Replicon TD50” value with Huh-9B is recorded as “** (** >25 μM)”.

As to `Cc1csc(-c2ccc3ncnc(Nc4ccc(-n5cncn5)cc4)c3c2)c1` [Example 18, [6-(4-Methyl-thiophen-2-yl)-quinazolin-4-yl]-(4-[1,2,4]triazol-1-yl-phenyl)-amine], in the data set with HCV replicon 1b (Huh-9B) (Hepatitis C virus), the IC50 was less than 5 µM. For the same molecule, the “Replicon TD50” value with Huh-9B is listed as “** (** >25 μM)”.

Regarding `COc1ccc(-c2ccc3ncnc(Nc4ccc(-n5nc(C(=O)O)nc5C)cc4)c3c2)cc1OC` [Example 29, 1-(4-{6-[3,4-Dimethoxy-phenyl]-quinazolin-4-ylamino}-phenyl)-5-methyl-1H-[1,2,4]triazole-3-carboxylic acid], in the data set with HCV replicon 1b (Huh-9B) (Hepatitis C virus), the IC50 fell in the range of 5 to 20 µM. Moreover, the “Replicon TD50” value with Huh-9B is reported as “** (** >25 μM)”.

`c1coc(-c2ccc3ncnc(Nc4ccc(-n5cncn5)cc4)c3c2)c1` [Example 19] came in with an IC50 against HCV replicon 1b (Huh-9B) of less than 5 µM. The “Replicon TD50” value in the data set with Huh-9B is reported as “** (** >25 μM)”.
